# Reference: US9850527B2, “Modified stem-loop oligonucleotide mediated reverse transcription and base-spacing constrained quantitative PCR” (National University of Singapore, priority 2010, dated 2017)
# What was measured:
# [1] = test system: miRNA expression in U251 cells; assay: GDNF-regulated miRNA expression in U251 cells quantified by hemi-nested real-time RT-PCR; format: cell-based, human
# Protocol: Human glioblastoma cell lines A172 and U251 were cultured in DMEM supplemented with 10% fetal bovine serum (FBS, Sigma) and antibiotics (100 U/ml penicillin and 100 μg/ml streptomycin) in a 5% CO2 humidified incubator at 37° C. U251 cells were seeded at 200,000 cells per well in E-well plate for 24 h and incubated with FBS-free DMEM medium for 12-16 h. The cells were then stimulated with 100 ng/ml of GDNF for defined periods of time in DMEM. For MEK inhibitor studies, the cells were pre-incubated with 5 μM U0126 (Promega, Madison, Wis., USA) for 45 min in DMEM prior to GDNF stimulations. Total RNA from untreated or GDNF treated glioblastoma cells was isolated using TRIzol reagent (Invitrogen) in the presence of 20 μg/ml linear acrylamide (Ambion) according to the manufacturer's instructions. The extracted RNA samples were then quantified using spectrophotometry and the integrity examined by denaturing RNA gel electrophoresis. […]
# Real-time PCR was performed on the CFX96 system (Bio-Rad, Hercules, Calif., USA) using SYBR GREEN™ I. Real-time PCR for precursor miRNA and U6 snRNA was performed according to previous reports (Schmittgen et al., 2004; Jiang et al., 2005). […] The threshold cycles (Ct) were calculated automatically using the CFX manager software (Bio-Rad). […]
# [2] = test system: ERK1/2 MAPK; assay: GDNF-induced ERK1/2 MAPK signaling activation in U251 cells (Western blot, phospho ERK1/2); format: cell-based, human; details: GDNF 100 ng/ml
# Protocol: FIG. 18. GDNF-induced signaling activation in U251 human glioblastoma cells. Control and GDNF stimulated U251 cells were lysed with 2% SDS. Total protein lysates were quantified using microBCA protein assay (Pierce, Rockford, Ill., USA). Total protein (10 μg) were separated by SDS-PAGE and probed with antibodies against phospho ERK1/2 (Cell […] Technologies, Danvers, Mass., USA). The blots were striped in Western Blot Stripping Buffer (Pierce) and re-probed with total ERK1/2 (Cell Signaling Technologies) to verify equal loading. Chemiluminescence was imaged and analyzed by ChemiDoc system (Bio-Rad). A) Time-course of ERK1/2 MAPK activation by GDNF (100 ng/ml) in U251 cells. B) GDNF-induced ERK1/2 MAPK activation was inhibited by pre-treatment of MEK inhibitor U0126 (5 μM).
# Human glioblastoma cell lines A172 and U251 were cultured in DMEM supplemented with 10% fetal bovine serum (FBS, Sigma) and antibiotics (100 U/ml penicillin and 100 μg/ml streptomycin) in a 5% CO2 humidified incubator at 37° C. U251 cells were seeded at 200,000 cells per well in E-well plate for 24 h and incubated with FBS-free DMEM medium for 12-16 h. The cells were then stimulated with 100 ng/ml of GDNF for defined periods of time in DMEM. […] The extracted RNA samples were then quantified using spectrophotometry and the integrity examined by denaturing RNA gel electrophoresis.
# [3] = biological target: Taq polymerase (Thermus aquaticus, UniProt P19821); details: cited from earlier work
# Sequence of Taq polymerase (P19821 whole entry): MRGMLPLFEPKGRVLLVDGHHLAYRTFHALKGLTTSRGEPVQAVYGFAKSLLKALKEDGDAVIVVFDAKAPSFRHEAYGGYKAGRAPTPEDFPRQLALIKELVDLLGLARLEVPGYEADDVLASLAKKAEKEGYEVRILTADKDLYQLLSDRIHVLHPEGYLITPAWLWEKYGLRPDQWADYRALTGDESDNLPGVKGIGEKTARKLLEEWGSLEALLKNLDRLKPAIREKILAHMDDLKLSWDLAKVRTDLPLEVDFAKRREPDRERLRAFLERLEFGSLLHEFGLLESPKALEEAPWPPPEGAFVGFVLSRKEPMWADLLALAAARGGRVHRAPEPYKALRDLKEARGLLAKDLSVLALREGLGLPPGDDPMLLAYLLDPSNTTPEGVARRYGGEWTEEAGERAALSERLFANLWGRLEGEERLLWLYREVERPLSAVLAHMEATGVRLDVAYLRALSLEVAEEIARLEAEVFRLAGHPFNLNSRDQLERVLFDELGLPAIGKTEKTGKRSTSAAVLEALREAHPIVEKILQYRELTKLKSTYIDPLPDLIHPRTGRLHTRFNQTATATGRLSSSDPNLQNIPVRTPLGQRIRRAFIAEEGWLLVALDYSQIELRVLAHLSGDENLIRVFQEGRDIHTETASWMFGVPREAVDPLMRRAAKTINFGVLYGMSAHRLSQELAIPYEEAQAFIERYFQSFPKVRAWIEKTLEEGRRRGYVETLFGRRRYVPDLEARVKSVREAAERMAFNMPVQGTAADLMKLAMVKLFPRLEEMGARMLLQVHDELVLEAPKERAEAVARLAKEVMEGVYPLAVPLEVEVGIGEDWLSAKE
molecule,measurement,setting,value
N#CC(=C(/N)Sc1ccccc1N)/C(C#N)=C(\N)Sc1ccccc1N [U0126],inhibition of GDNF-induced up-regulation of the 6 miRNAs,"[1]; pretreatment with U0126, 24-plex assay",effectively inhibited
same,inhibition of GDNF-induced ERK1/2 MAPK activation,"[2]; U251 cells, pre-treatment with U0126 5 μM",inhibited
"Nc1ccc([C@H]2C[C@H](O)[C@@H](COP(=O)(O)OP(=O)(O)OP(=O)(O)O)O2)cn1 [d*CTP, 2-amino-5-(2′-deoxy-b-D-ribofuranosyl)pyridine-5′-triphosphate]",inhibition in PCR catalysed by Taq polymerase,[3],strong inhibition
"Cc1cc([C@H]2C[C@H](O)[C@@H](COP(=O)(O)OP(=O)(O)OP(=O)(O)O)O2)c[nH]c1=O [d*TTP, 5-(2′-deoxy-b-D-ribofuranosyl)-3-methyl-2-pyridone-5′-triphosphate]",inhibition in PCR catalysed by Taq polymerase,[3],strong inhibition
"GDNF: GDNF used to stimulate U251 glioblastoma cells at 100 ng/ml (protein, UniProt P39905 78-211, looked up) Glial cell line-derived …: SPDKQMAVLPRRERNRQAAAANPENSRGKGRRGQRGKNRGCVLTAIHLNVTDLGLGYETKEELIFRYCSGSCDAAETTYDKILKNLSRNRRLVSDKVGQACCRPIAFDDDLSFLDDNLVYHILRKHSAKRCGCI","regulation of miRNA expression (miR-7, -21, -218, let-7f, -7g, -7i), fold change to non-stimulated control","[1]; GDNF 100 ng/ml, temporal regulation",timedependent up-regulation
same,activation of ERK1/2 MAPK,"[2]; U251 human glioblastoma cells, time-course",induced time-dependent activation of ERK1/2 MAPK
